The first series has as its target T1, Nox4 (Homo sapiens, UniProt Q9NPH5).
T1 construct: expressed in transfected cells
T1 sequence (Q9NPH5 1-578): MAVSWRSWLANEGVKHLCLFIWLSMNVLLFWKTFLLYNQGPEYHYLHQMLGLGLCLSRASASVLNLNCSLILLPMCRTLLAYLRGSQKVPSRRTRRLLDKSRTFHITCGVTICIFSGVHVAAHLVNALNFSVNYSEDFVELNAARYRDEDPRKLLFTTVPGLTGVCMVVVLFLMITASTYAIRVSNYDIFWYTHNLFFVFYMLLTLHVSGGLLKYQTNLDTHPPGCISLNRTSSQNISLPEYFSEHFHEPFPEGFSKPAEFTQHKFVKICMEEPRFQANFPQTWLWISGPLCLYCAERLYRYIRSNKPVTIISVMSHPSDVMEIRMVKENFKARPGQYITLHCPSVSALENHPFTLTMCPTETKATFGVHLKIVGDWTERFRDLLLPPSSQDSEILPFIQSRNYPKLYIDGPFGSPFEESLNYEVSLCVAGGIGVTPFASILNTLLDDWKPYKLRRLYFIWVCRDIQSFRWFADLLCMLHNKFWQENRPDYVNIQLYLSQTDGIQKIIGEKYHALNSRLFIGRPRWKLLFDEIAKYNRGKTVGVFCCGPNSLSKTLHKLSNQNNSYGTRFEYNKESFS
T1 sequence (P13498 1-195 partner): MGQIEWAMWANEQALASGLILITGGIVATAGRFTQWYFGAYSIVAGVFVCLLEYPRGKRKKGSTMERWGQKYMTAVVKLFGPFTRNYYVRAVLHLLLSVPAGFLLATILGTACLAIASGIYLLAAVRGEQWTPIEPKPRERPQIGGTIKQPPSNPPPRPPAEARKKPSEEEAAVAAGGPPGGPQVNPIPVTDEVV
Description: Inhibition of Nox4-dependent H2O2 production in HEK/Nox4 cells, Amplex Red assay. The class given is cell-based. The settings on record: 1 μM final concentration, 1 h, HEK/Nox4 cells; DMSO vehicle = 1.000; n = 3-10; read-out: H2O2 production relative to vehicle control, Mean. As for the experimental part:
A high-throughput screening (HTS) assay was established for Nox4 inhibition, utilizing HEK293 cells that stably over-express Nox4 (HEK/Nox4 cells), which generate high levels of H2O2(Cheng G et al, Gene: 2001, p. 131-140). Over 30,000 compounds have been screened and medicinal chemistry efforts have led to the synthesis of numerous analogs and the identification of a chemically distinct series of selective Nox4 inhibitors. […] IC-50 was evaluated for UANox048 (FIG. 1B).
HEK cells stably transfected to overexpress Nox4 were treated with varying concentrations of test compounds, DPI (all-Nox inhibitor positive control), or DMSO (vehicle control) and incubated for 1 h (FIG. 1). (FIG. 1A) H2O2 presence was evaluated by Amplex Red assay. […] Values represent means±SEM; n=4. P values were calculated by student's two-tailed t test. *p<0.05, **p<0.01, *** p<0.001.
T2 sequence (P08183 whole entry): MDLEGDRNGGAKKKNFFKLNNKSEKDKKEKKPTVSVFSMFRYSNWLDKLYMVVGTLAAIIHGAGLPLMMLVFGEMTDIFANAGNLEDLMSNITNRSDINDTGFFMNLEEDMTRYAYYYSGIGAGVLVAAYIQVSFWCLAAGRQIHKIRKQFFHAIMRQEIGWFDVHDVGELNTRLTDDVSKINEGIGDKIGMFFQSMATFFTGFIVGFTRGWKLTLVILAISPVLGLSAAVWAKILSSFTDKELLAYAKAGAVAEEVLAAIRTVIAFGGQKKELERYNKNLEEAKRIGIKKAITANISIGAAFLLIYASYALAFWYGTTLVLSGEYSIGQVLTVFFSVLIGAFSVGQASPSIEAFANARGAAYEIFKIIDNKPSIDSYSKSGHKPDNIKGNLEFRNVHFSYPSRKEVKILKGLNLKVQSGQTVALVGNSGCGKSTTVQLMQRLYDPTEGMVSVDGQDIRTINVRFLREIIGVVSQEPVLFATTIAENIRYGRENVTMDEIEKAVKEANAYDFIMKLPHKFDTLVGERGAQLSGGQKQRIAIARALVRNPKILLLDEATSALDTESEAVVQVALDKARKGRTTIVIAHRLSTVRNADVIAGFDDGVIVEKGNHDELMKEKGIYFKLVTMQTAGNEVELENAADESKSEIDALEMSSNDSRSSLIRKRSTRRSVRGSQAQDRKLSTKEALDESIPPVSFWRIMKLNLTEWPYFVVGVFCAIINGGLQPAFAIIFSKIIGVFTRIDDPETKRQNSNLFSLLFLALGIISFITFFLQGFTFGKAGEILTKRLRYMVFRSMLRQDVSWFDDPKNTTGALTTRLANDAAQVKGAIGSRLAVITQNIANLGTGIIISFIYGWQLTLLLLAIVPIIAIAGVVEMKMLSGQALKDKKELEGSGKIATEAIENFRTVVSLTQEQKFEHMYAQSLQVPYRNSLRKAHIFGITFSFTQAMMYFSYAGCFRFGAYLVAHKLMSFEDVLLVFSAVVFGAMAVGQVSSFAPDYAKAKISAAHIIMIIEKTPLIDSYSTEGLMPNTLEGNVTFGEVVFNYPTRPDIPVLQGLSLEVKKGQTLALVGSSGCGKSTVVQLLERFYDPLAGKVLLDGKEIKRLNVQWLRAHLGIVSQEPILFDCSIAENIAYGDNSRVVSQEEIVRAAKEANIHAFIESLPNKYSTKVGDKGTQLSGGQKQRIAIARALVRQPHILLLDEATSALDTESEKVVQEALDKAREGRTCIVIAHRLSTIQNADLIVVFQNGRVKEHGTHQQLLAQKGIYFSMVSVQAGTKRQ
In the case of `CC(CNS(=O)(=O)c1ccc(C(F)(F)F)cc1)N1CCc2ccccc21` (stereo not drawn) [UANOX048, N-(2-(indolin-1-yl)propyl)-4-(trifluoromethyl)benzenesulfonamide], the remaining activity at 1 µM turned out to be 89.3%.

`CN(C)S(=O)(=O)N1CCN(CCC(=O)N2CCc3ccccc32)CC1` [UANOX032, 4-(3-(indolin-1-yl)-3-oxopropyl)-N,N-dimethylpiperazine-1-sulfonamide]: the remaining activity at 1 µM turned out to be 112%.

With `O=C(CCN1CCN(S(=O)(=O)N2CCOCC2)CC1)N1CCc2ccccc21` [UANOX030], the remaining activity at 1 µM came to 108%.

Consider `CC(C)(CNS(=O)(=O)c1ccc(F)cc1)N1CCc2ccccc21` [UANOX086, 4-fluoro-N-(2-(indolin-1-yl)-2-methylpropyl)benzenesulfonamide], for which the remaining activity at 1 µM turned out to be 90.7%.

In the case of `CCN(CC)C(=O)NCCN1CCc2ccccc21` [UANOX002, 1,1-diethyl-3-(2-(indolin-1-yl)ethyl)urea], the remaining activity at 1 µM stood at 98.6%.

For `O=S(=O)(NCCN1CCc2ccccc21)c1ccc(Oc2ccccc2)cc1` [UANOX079, N-(2-(indolin-1-yl)ethyl)-4-phenoxybenzenesulfonamide], the remaining activity at 1 µM amounted to 89.6%.

As for `CCN(CC)C(=O)N1CCN(CCN2CCc3ccccc32)CC1` [UANOX066], the remaining activity at 1 µM turned out to be 95.3%.

Consider `O=S(=O)(NCCN1CCc2ccccc21)N1CCOCC1` [UANOX012, N-(2-(indolin-1-yl)ethyl)morpholine-4-sulfonamide], for which the remaining activity at 1 µM is 96%.

Staying with this series, now noted: 5 μM final concentration, 1 h, HEK/Nox4 cells; DMSO vehicle = 1.000; n = 3-10; read-out: H2O2 production relative to vehicle control, Mean.
In the case of `CC(CNS(=O)(=O)c1ccc(C(F)(F)F)cc1)N1CCc2ccccc21` (stereo not drawn) [UANOX048, N-(2-(indolin-1-yl)propyl)-4-(trifluoromethyl)benzenesulfonamide], the remaining activity at 5 µM was 76.5%.

As to `CN(C)S(=O)(=O)N1CCN(CCC(=O)N2CCc3ccccc32)CC1` [UANOX032, 4-(3-(indolin-1-yl)-3-oxopropyl)-N,N-dimethylpiperazine-1-sulfonamide], the remaining activity at 5 µM is 109%.

Turning to `O=C(CCN1CCN(S(=O)(=O)N2CCOCC2)CC1)N1CCc2ccccc21` [UANOX030], the remaining activity at 5 µM amounted to 108%.

As for `CC(C)(CNS(=O)(=O)c1ccc(F)cc1)N1CCc2ccccc21` [UANOX086, 4-fluoro-N-(2-(indolin-1-yl)-2-methylpropyl)benzenesulfonamide], the remaining activity at 5 µM stood at 81.6%.

`CCN(CC)C(=O)NCCN1CCc2ccccc21` [UANOX002, 1,1-diethyl-3-(2-(indolin-1-yl)ethyl)urea]: the remaining activity at 5 µM worked out at 106%.

`O=S(=O)(NCCN1CCc2ccccc21)c1ccc(Oc2ccccc2)cc1` [UANOX079, N-(2-(indolin-1-yl)ethyl)-4-phenoxybenzenesulfonamide]: the remaining activity at 5 µM is 65.1%.

As for `CCN(CC)C(=O)N1CCN(CCN2CCc3ccccc32)CC1` [UANOX066], the remaining activity at 5 µM is 72.2%.

`O=S(=O)(NCCN1CCc2ccccc21)N1CCOCC1` [UANOX012, N-(2-(indolin-1-yl)ethyl)morpholine-4-sulfonamide]: the remaining activity at 5 µM is 95%.

Staying with this series, now noted: 10 μM final concentration, 1 h, HEK/Nox4 cells; DMSO vehicle = 1.000; n = 3-10; read-out: H2O2 production relative to vehicle control, Mean.
Take `CC(CNS(=O)(=O)c1ccc(C(F)(F)F)cc1)N1CCc2ccccc21` (stereo not drawn) [UANOX048, N-(2-(indolin-1-yl)propyl)-4-(trifluoromethyl)benzenesulfonamide]: the remaining activity at 10 µM amounted to 69.3%.

As to `CN(C)S(=O)(=O)N1CCN(CCC(=O)N2CCc3ccccc32)CC1` [UANOX032, 4-(3-(indolin-1-yl)-3-oxopropyl)-N,N-dimethylpiperazine-1-sulfonamide], the remaining activity at 10 µM worked out at 105%.

With `O=C(CCN1CCN(S(=O)(=O)N2CCOCC2)CC1)N1CCc2ccccc21` [UANOX030], the remaining activity at 10 µM is 104%.

Regarding `CC(C)(CNS(=O)(=O)c1ccc(F)cc1)N1CCc2ccccc21` [UANOX086, 4-fluoro-N-(2-(indolin-1-yl)-2-methylpropyl)benzenesulfonamide], the remaining activity at 10 µM came out at 71.4%.

For the compound `CCN(CC)C(=O)NCCN1CCc2ccccc21` [UANOX002, 1,1-diethyl-3-(2-(indolin-1-yl)ethyl)urea], the remaining activity at 10 µM came out at 101%.

As for `O=S(=O)(NCCN1CCc2ccccc21)c1ccc(Oc2ccccc2)cc1` [UANOX079, N-(2-(indolin-1-yl)ethyl)-4-phenoxybenzenesulfonamide], the remaining activity at 10 µM was 58.4%.

On to `CCN(CC)C(=O)N1CCN(CCN2CCc3ccccc32)CC1` [UANOX066], for which the remaining activity at 10 µM was 73.1%.

As to `O=S(=O)(NCCN1CCc2ccccc21)N1CCOCC1` [UANOX012, N-(2-(indolin-1-yl)ethyl)morpholine-4-sulfonamide], the remaining activity at 10 µM was found to be 85.7%.

Still in this series, the particulars now being: HEK/Nox4 cells, 1 h, Amplex Red; FIG. 1B.
The compound `CC(CNS(=O)(=O)c1ccc(C(F)(F)F)cc1)N1CCc2ccccc21` (stereo not drawn) [UANOX048, N-(2-(indolin-1-yl)propyl)-4-(trifluoromethyl)benzenesulfonamide] came in with an IC50 of 4.8 µM.

Still in this series, the particulars now being: varying concentrations, Amplex Red; FIG. 1A.
Consider `CC(CNS(=O)(=O)c1ccc(C(F)(F)F)cc1)N1CCc2ccccc21` (stereo not drawn) [UANOX048, N-(2-(indolin-1-yl)propyl)-4-(trifluoromethyl)benzenesulfonamide], for which the “H2O2 generation by HEK/Nox4 cells” value is listed as “dose-dependent decrease”.

Test system in another series: not listed separately
Description: Differential scanning calorimetry (DSC) thermal stability. The format is physicochemical. The settings on record: solid state; room and body temperatures (32-37° C.). The source says: Differential scanning calorimetry (DSC) was used, a highly sensitive thermos-analytical technique to quantify the thermotropic properties and phase transitions of drug candidates. […] X-ray powder diffraction (XRPD) is a non-destructive material science “gold standard” method for measuring the degree of long-range molecular order in the powder. This is critical for solid-state characterization, where drug candidates yield a unique pattern for any given crystalline phase; this provides a ‘molecular fingerprint’ for crystallinity identification. […] Attenuated Total Reflection Fourier Transform Infrared (ATR-FTIR) Spectroscopy is a non-destructive molecular identification tool based on the absorption of infrared light by vibrational transitions in covalent bonds. This provides a ‘molecular fingerprint’ for chemical identification. ATR-FTIR permits fine discrimination between like materials and/or batch-to-batch quality verification; it is used to identify active pharmaceutical ingredients (API). […] Scanning Electron Microscopy (SEM) with Energy Dispersive X-ray (EDX) is used to visualize the synthesized particles in their native solid-state and quantify important particle properties which directly influence formulation, including surface structure, particle morphology and size, and particle size range distribution. […]
`CC(CNS(=O)(=O)c1ccc(C(F)(F)F)cc1)N1CCc2ccccc21` (stereo not drawn) [UANOX048, N-(2-(indolin-1-yl)propyl)-4-(trifluoromethyl)benzenesulfonamide]: the “stability (DSC)” value is recorded as “highly stable”.

The next series concerns the target T2, P-glycoprotein (Homo sapiens, UniProt P08183).
T2 construct: endogenous in cells; host or cells: Caco-2
Description: P-glycoprotein efflux susceptibility in Caco-2 monolayers. The class given is in vitro ADME. The settings on record: apical-to-basolateral vs basolateral-to-apical. As for the experimental part:
(§1) In vitro absorption, distribution, metabolism, and excretion (ADME) were performed on selected analogs to assess their potential for continued pre-clinical development. UANox048 analog has favorable pharmacokinetic/pharmacodynamics properties, including a low molecular weight (384.4 g/mol), calculated log D value (4.07), and polar surface area (57.8 Å^2). The compounds were tested for cellular permeability and P-glycoprotein efflux susceptibility (P-gp efflux). […] P-gp efflux was calculated by comparing permeability through Caco-2 monolayers in both the apical-to-basolateral and basolateral-to-apical directions. Permeability for Caco-2 cells was determined by the lucifer yellow monolayer integrity test. Caco-2 cells were incubated with UANox048 (5 μM, 2 h) and flux of lucifer yellow across cell monolayers was determined by LC-MS/MS using electrospray ionization. Molecular weight, log D, and polar surface area calculations were performed with ChemDraw software.
Take `CC(CNS(=O)(=O)c1ccc(C(F)(F)F)cc1)N1CCc2ccccc21` (stereo not drawn) [UANOX048, N-(2-(indolin-1-yl)propyl)-4-(trifluoromethyl)benzenesulfonamide]: the P-gp efflux result is “no P-gp efflux”.

In the next series the test system is HEK cells stably transfected to overexpress Nox4. In words: Cellular viability of HEK/Nox4 cells, CellTiter-Glo Assay. The format is cell-based. The settings on record: 1 h, FIG. 2C. The procedure:
Screening was performed to rule out false positives.
UANoxO48, DMSO (vehicle control), or catalase (known H2O2 scavenger positive control) was added to a cell-free assay containing exogenous H2O2(5 mM) and scavenger activity for H2O2 was assessed by (FIG. 2A) Amplex Red assay and (FIG. 2B) ROS-Glo assay (an HRP-free assay system to rule out assay interference). (FIG. 2C) HEK cells stably transfected to overexpress Nox4 were treated with UANox048, digitonin (an inducer of cell death), or DMSO (vehicle control) and incubated for 1 h. Cellular viability was evaluated by CellTiter-Glo Assay. Values represent means±SEM; n=4; P values were calculated by student's two-tailed t test. *p<0.05, **p<0.01, *** p<0.001.
As to `CC(CNS(=O)(=O)c1ccc(C(F)(F)F)cc1)N1CCc2ccccc21` (stereo not drawn) [UANOX048, N-(2-(indolin-1-yl)propyl)-4-(trifluoromethyl)benzenesulfonamide], the cellular viability result is reported as “does not affect cellular viability”.

For the next series, the system named is Caco-2 cells. Description: Caco-2 permeability. The class given is in vitro ADME. The settings on record: 5 μM, 2 h. As for the experimental part:
as §1
As for `CC(CNS(=O)(=O)c1ccc(C(F)(F)F)cc1)N1CCc2ccccc21` (stereo not drawn) [UANOX048, N-(2-(indolin-1-yl)propyl)-4-(trifluoromethyl)benzenesulfonamide], the Caco-2 permeability entry was “high”.

Values taken from US10654802B2, “Indoline derivatives and method for using and producing the same” (ARIZONA BOARD OF REGENTS ON BEHALF OF THE UNIVERSITY OF …, priority 2016, dated 2020).
